Assay results published in ChEMBL document CHEMBL2311249, “Development of inhibitors of the PAS-B domain of the HIF-2α transcription factor” (J Med Chem, 2013).

What was measured:
[1] = target: Endothelial PAS domain-containing protein 1 (Homo sapiens, UniProt Q99814); assay: Binding affinity to wild type PAS-B domain of HIF-2alpha (unknown origin) by isothermal calorimetry analysis
[2] = target: Aryl hydrocarbon receptor nuclear translocator/Endothelial PAS domain-containing protein 1 (Homo sapiens, UniProt P27540+Q99814); assay: (§1) Inhibition of GST-tagged PAS-B domain of HIF-2alpha-Flag-tagged PAS-B domain of ARNT heterodimerization (unknown origin) by luminescence proximity assay; type: protein assay
Aryl hydrocarbon receptor nuclear translocator/Endothelial PAS domain-containing protein 1 (Homo sapiens, UniProt P27540+Q99814), sequence (P27540 whole entry, the tested form may be a part): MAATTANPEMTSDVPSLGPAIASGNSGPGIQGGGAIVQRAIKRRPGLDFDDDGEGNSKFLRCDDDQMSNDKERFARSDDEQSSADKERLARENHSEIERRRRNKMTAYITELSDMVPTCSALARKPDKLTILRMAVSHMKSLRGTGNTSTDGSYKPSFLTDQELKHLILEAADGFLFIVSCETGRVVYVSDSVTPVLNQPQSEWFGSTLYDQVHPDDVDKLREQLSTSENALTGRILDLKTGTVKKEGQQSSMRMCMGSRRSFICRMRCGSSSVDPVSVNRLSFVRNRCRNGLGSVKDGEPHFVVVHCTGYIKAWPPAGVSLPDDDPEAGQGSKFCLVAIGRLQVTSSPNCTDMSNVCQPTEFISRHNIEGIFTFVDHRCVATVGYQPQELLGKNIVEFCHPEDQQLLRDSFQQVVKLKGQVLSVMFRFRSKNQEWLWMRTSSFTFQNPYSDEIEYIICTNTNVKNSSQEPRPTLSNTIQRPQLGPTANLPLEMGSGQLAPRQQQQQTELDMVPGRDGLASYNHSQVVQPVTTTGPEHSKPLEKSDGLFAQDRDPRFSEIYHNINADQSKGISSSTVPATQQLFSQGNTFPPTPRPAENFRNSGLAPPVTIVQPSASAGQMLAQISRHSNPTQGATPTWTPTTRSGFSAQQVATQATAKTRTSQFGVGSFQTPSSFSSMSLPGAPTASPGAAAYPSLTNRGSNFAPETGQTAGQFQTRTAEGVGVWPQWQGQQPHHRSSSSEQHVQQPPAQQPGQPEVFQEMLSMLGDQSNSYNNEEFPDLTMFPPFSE
Aryl hydrocarbon receptor nuclear translocator/Endothelial PAS domain-containing protein 1 (Homo sapiens, UniProt P27540+Q99814), sequence (Q99814 whole entry, the tested form may be a part): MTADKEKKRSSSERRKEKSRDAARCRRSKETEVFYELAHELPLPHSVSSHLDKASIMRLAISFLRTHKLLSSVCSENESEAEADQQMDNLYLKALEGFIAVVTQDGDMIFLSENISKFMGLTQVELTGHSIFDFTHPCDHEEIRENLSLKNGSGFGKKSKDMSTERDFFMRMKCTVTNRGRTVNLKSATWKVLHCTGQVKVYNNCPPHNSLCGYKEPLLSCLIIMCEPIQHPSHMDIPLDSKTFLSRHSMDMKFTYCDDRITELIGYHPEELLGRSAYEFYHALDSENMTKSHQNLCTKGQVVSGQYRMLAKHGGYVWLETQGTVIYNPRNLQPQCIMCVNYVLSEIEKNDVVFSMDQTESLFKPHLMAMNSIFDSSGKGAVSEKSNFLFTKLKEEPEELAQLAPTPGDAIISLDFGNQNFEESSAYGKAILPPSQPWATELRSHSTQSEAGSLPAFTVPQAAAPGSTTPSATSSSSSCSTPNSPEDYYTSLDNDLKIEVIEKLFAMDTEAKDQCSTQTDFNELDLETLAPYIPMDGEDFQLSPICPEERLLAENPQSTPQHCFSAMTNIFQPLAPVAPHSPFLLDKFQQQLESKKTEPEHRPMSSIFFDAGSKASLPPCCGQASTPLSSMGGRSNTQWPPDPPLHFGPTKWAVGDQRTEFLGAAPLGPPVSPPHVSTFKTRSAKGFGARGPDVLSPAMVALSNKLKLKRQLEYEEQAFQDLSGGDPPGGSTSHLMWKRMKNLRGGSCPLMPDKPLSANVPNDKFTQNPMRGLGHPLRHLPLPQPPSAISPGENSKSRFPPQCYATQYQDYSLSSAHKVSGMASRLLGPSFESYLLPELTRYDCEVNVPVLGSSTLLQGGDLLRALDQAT

[3] = target: Aryl hydrocarbon receptor nuclear translocator/Endothelial PAS domain-containing protein 1 (Homo sapiens, UniProt Q99814); assay: as §1; type: protein assay
Aryl hydrocarbon receptor nuclear translocator/Endothelial PAS domain-containing protein 1 (Homo sapiens, UniProt Q99814), sequence (P27540 whole entry, the tested form may be a part): as the sequence (P27540 whole entry, the tested form may be a part) above
Aryl hydrocarbon receptor nuclear translocator/Endothelial PAS domain-containing protein 1 (Homo sapiens, UniProt Q99814), sequence (Q99814 whole entry, the tested form may be a part): as the sequence (Q99814 whole entry, the tested form may be a part) above

Endothelial PAS domain-containing protein 1, sequence (Q99814 whole entry, the tested form may be a part): as above

Row | IC50 [2] | SMILES | Kd [1] [nM] | IC50 [3] [nM]
1 |  | O=[N+]([O-])c1c(Nc2ccc(F)c(Cl)c2)ccc2nonc12 | 400 | 170
2 | Not Active | O=[N+]([O-])c1c(Nc2ccc(F)cc2)ccc2nonc12 |  | 
3 | Not Active | O=C1C=CC(=O)N1c1c(Nc2cc(F)cc(Cl)c2)ccc2nonc12 |  | 
4 |  | Nc1c(Nc2cc(F)cc(Cl)c2)ccc2nonc12 | 6000 | > 30000
5 | Not Active | O=[N+]([O-])c1c(Nc2ccc(Br)cc2)ccc2nonc12 |  | 
6 |  | O=[N+]([O-])c1c(Nc2cc(F)cc(Cl)c2)ccc2[nH]cnc12 |  | < 5000
7 |  | O=[N+]([O-])c1c(Nc2cc(F)cc(C(F)(F)F)c2)ccc2nonc12 |  | 430
8 |  | O=[N+]([O-])c1c(Nc2cccc(F)c2)ccc2nonc12 | 2200 | 2100
9 |  | O=[N+]([O-])c1c(Nc2ccc(Cl)c(C(F)(F)F)c2)ccc2nonc12 | 170 | 90
10 | Not Active | O=[N+]([O-])c1c(Nc2cccc(F)c2Cl)ccc2nonc12 |  | 
11 | Not Active | O=[N+]([O-])c1c(Oc2cc(F)cc(Cl)c2)ccc2nonc12 |  | 
12 | Not Active | O=[N+]([O-])c1c(NCc2ccc(Cl)cc2)ccc2nonc12 |  | 
13 | Not Active | CC(=O)Nc1c(Nc2cc(F)cc(Cl)c2)ccc2nonc12 |  | 
14 |  | O=[N+]([O-])c1c(Nc2cc(F)cc(Cl)c2)ccc2nn[nH]c12 | > 20000 | > 10000
15 |  | O=[N+]([O-])c1cccc(Nc2ccc3nonc3c2[N+](=O)[O-])c1 | 3000 | 2800
16 |  | CN(c1cc(F)cc(Cl)c1)c1ccc2nonc2c1[N+](=O)[O-] | > 10000 | > 3000
17 |  | O=[N+]([O-])c1c(NCc2cc(F)cc(Cl)c2)ccc2nonc12 |  | 2000
18 |  | O=[N+]([O-])c1c(Nc2cc(F)cc(Cl)c2)ccc2nonc12 | 90 | 100
19 | Not Active | O=[N+]([O-])c1c(NCc2cc(F)ccc2C(F)(F)F)ccc2nonc12 |  | 
20 |  | O=[N+]([O-])c1c(Nc2cccc(Cl)c2F)ccc2nonc12 |  | 760

Row | IC50 [2] | SMILES | Kd [1] [nM] | IC50 [3] [nM]
21 | Not Active | O=[N+]([O-])c1c(Nc2ccc(Cl)cc2)ccc2nonc12 |  | 
22 |  | O=[N+]([O-])c1c(Nc2cccc(Cl)c2)ccc2nonc12 |  | 180
23 |  | O=[N+]([O-])c1c(NCc2cc(F)ccc2F)ccc2nonc12 |  | > 10000
24 | Not Active | O=[N+]([O-])c1c(Sc2ccccc2)ccc2nonc12 |  | 
25 | Not Active | COc1cccc(Nc2ccc3nonc3c2[N+](=O)[O-])c1 |  | 
26 | Not Active | O=[N+]([O-])c1c(NCc2c(F)cccc2Cl)ccc2nonc12 |  | 
27 |  | Nc1nc2ccc(Nc3cc(F)cc(Cl)c3)c([N+](=O)[O-])c2[nH]1 |  | > 2000
28 |  | O=[N+]([O-])c1c(NCc2ccccc2)ccc2nonc12 |  | > 5000
29 |  | O=[N+]([O-])c1c(NCc2ccc(F)cc2Cl)ccc2nonc12 |  | 330
30 | Not Active | O=[N+]([O-])c1c(Sc2cccc(F)c2)ccc2nonc12 |  | 
31 | Not Active | O=[N+]([O-])c1c(Nc2ccc(C(F)(F)F)cc2Cl)ccc2nonc12 |  | 
32 |  | O=[N+]([O-])c1cc(Nc2ccc3nonc3c2[N+](=O)[O-])ccc1Cl |  | 400
33 |  | O=[N+]([O-])c1c(NCc2ccc(F)cc2C(F)(F)F)ccc2nonc12 | 540 | 500
34 |  | O=[N+]([O-])c1c(Nc2ccc(Cl)c(Cl)c2)ccc2nonc12 |  | 120
35 |  | O=[N+]([O-])c1c(Nc2cc(F)cc(F)c2)ccc2nonc12 | 730 | 2000
36 | Not Active | O=[N+]([O-])c1c(Sc2cc(F)cc(Cl)c2)ccc2nonc12 |  | 
37 |  | O=[N+]([O-])c1c(Nc2cccc(C(F)(F)F)c2)ccc2nonc12 |  | 460
38 | Not Active | O=C(CCl)Nc1c(Nc2cc(F)cc(Cl)c2)ccc2nonc12 |  | 
39 | Not Active | Cc1ccc(CNc2ccc3nonc3c2[N+](=O)[O-])cc1 |  | 

Row | SMILES | IC50 [2] | Kd [1] [nM] | IC50 [3] [nM]
40 | Fc1cc(Cl)cc(Nc2ccc3nonc3c2)c1 | Not Active | 3000 | 
41 | CNS(=O)(=O)c1c(Nc2cc(F)cc(Cl)c2)ccc2nonc12 | Not Active |  | 
42 | O=[N+]([O-])c1ccccc1Nc1cc(F)cc(Cl)c1 | Not Active | 4300 | 
43 | CN(C)S(=O)(=O)c1c(Nc2cc(F)cc(Cl)c2)ccc2nonc12 | Not Active |  | 
